Like-named read-outs stand apart in the source and are kept apart here.
Test: Pharmacokinetics study of KDG-0271 in male CD1 mice (Example 3)
Type: in vivo
Conditions: for F: bioavailability vs 1 mg/kg IV; for MRT inf: read-out: MRTInf_obs
Method: A standard PK study of KDG-0271 was performed in male CD1 mice dosed with a single oral or intraperitoneal dose of KDG-0271. The parameters of the PK study are described in Table 18. Dosing solutions were freshly made prior to use, and were in the form of a suspension. […] For IV and IP, after collection, plasma samples from the same time point were pooled, and the pooled samples were analyzed by LC/MS/MS.
The desired serial concentrations of working solutions were achieved by diluting stock solution of analyte with 50% acetonitrile in water solution. 5 μL of working solutions (1, 2, 4, 20, 100, 200, 1000, 2000 ng/mL) were added to 10 μL of blank CD1 mouse plasma to achieve calibration standards of […] (0.5, 1, 2, 10, 50, 100, 500, 1000 ng/mL) in a total volume of 15 μL. Four quality control samples at 1 ng/mL, 2 ng/mL, 50 ng/mL and 800 ng/mL for plasma were prepared independently of those used for the calibration curves. These QC samples were prepared on the day of analysis in the same way as calibration standards.
15 μL standards, 15 μL QC samples and 15 μL unknown samples (10 μL plasma with 5 μL blank solution) were added to 200 μL of acetonitrile containing IS mixture for precipitating protein. Then the samples were vortexed for 30 seconds. After centrifugation at 4 degrees Celsius, 4000 rpm for 15 minutes, the supernatant was diluted three times with water. 10 μL of diluted supernatant was injected into the LC/MS/MS system for quantitative analysis.
BLOQ=Below quantifiable limit of 1 ng/mL. PK parameters were estimated by non-compartmental model using WinNonlin 6.1. The PO bioavailability (F %) was calculated as following:
AUClast-PO/AUCINF-PO>80%: F=(AUCINF-PO*DoseIV)/(mean AUCINF-IV*DosePO) AUClast-PO/AUCINF-PO≤80% or AUCINF was not available: F=(AUClast-PO*DoseIV)/(mean AUClast-IV*DosePO).
The IP bioavailability (F %) was calculated as following:
AUClast-IP/AUCINF-IP>80%: F=(AUCINF-IP*DoseIV)/(mean AUCINF-IV*DoseIP) AUClast-IP/AUCINF-IP≤80% or AUCINF was not available: F=(AUClast-IP*DoseIV)/(mean AUClast-IV*DoseIP).

[1] = male, mouse, plasma, CD1 mice, 1 mg/kg IV
[2] = male, mouse, CD1 mice, plasma, 1 mg/kg IV, read-out: Concentration IV_Mean
[3] = mouse, plasma, male CD1 mice, 200 mg/kg IP
[4] = mouse, plasma, male CD1 mice, 200 mg/kg PO
[5] = mouse, male CD1 mice, plasma, 200 mg/kg IP, read-out: Concentration IP_Mean
[6] = mouse, male CD1 mice, plasma, 200 mg/kg PO, read-out: Concentration PO_Mean

Work on `Cc1n[nH]c2c1C(c1cc(C#CC3CN(C(=O)OC(C)(C)C)C3)cc(CO)c1)(C(C)C)C(C#N)=C(N)O2` (centres unmarked) [KDG-0271, tert-butyl 3-[2-(3-[6-amino-5-cyano-4-isopropyl-3-methyl-1H-pyrano[2,3-c]pyrazol-4-yl]-5-(hydroxymethyl)phenyl)ethynyl]azetidine-1-carboxylate] yielded an AUC_%Extrap_obs (CD1 mice, 1 mg/kg IV) of 0.718%, an AUClast/D (CD1 mice, 1 mg/kg IV) of 99.3 kg·ng·h/mL/mg and a Cl_obs (CD1 mice, 1 mg/kg IV) of 167 mL/min/kg. For the same compound, the Vss_obs (CD1 mice, 1 mg/kg IV) was 3.32 L/kg, the “Concentration IV_Mean” value (CD1 mice, plasma, 1 mg/kg IV, 8 h) was “BLOQ” and the AUC_%Extrap_obs (male CD1 mice, 200 mg/kg IP) was 43.6%. For the same compound, the AUClast/D (male CD1 mice, 200 mg/kg IP) was 40.7 kg·ng·h/mL/mg, the F (male CD1 mice, 200 mg/kg IP) was 41.0% and the AUC_%Extrap_obs (male CD1 mice, 200 mg/kg PO) was 1.28%. The AUClast/D (male CD1 mice, 200 mg/kg PO) was 19.2 kg·ng·h/mL/mg, the F (male CD1 mice, 200 mg/kg PO) was 19.4% and the clinical symptoms (male CD1 mice, single dose 200 mg/kg PO or 200 mg/kg IP, entire experiment) was “No abnormal clinical symptoms were observed”. For the same compound, the AUC(0-inf) [1] was 100 ng·h/mL, the AUC(0-t) [1] was 99.3 ng·h/mL and the C0 [1] was 637 ng/mL. For the same compound, the half-life [1] was 0.787 h, the MRT inf [1] was 0.332 h and the concentration at 0.083 h (male, mouse, CD1 mice, plasma, 1 mg/kg IV, 0.083 h, read-out: Concentration IV_Mean) was 301 ng/mL. For the same compound, the concentration at 0.25 h [2] was 66.6 ng/mL, the concentration at 0.5 h [2] was 24.8 ng/mL and the concentration at 1 h [2] was 9.44 ng/mL. The concentration at 2 h [2] was 2.87 ng/mL, the concentration at 4 h [2] was 0.632 ng/mL and the AUC(0-inf) [3] was 14500 ng·h/mL. The AUC(0-t) [3] was 8150 ng·h/mL, the Cmax [3] was 2160 ng/mL and the Tmax [3] was 0.25 h. The half-life [3] was 6.85 h, the MRT inf [3] was 9.67 h and the AUC(0-inf) [4] was 3880 ng·h/mL. For the same compound, the AUC(0-t) [4] was 3830 ng·h/mL, the Cmax [4] was 1070 ng/mL and the Tmax [4] was 1 h. For the same compound, the half-life [4] was 1.2 h, the MRT inf [4] was 2.37 h and the concentration at 0.25 h [5] was 2160 ng/mL. For the same compound, the concentration at 0.5 h [5] was 1530 ng/mL, the concentration at 1 h [5] was 1390 ng/mL and the concentration at 2 h [5] was 1160 ng/mL. The concentration at 4 h [5] was 992 ng/mL, the concentration at 8 h (mouse, male CD1 mice, plasma, 200 mg/kg IP, 8 h, read-out: Concentration IP_Mean) was 638 ng/mL and the concentration at 0.25 h [6] was 701 ng/mL. It also gave a concentration at 0.5 h [6] of 958 ng/mL, a concentration at 1 h [6] of 1070 ng/mL and a concentration at 2 h [6] of 836 ng/mL. The concentration at 4 h [6] was 395 ng/mL and the concentration at 8 h (mouse, male CD1 mice, plasma, 200 mg/kg PO, 8 h, read-out: Concentration PO_Mean) was 28.6 ng/mL.

Source: patent publication US20230382920A1, “SHMT Inhibitors” (The Trustees of Princeton University, priority 2020, published 2023)
